From PMC6367708 (Journal of medicinal chemistry, 2018)
One block for each molecule: values may come before it.

Key:
CYP17A1 [1] = molecular target: T1, CYP17A1 (Homo sapiens, UniProt P05093); test: Inhibition of CYP17A1-mediated progesterone 17α-hydroxylation; assay type: biochemical; details: for increase in IC50 for CYP17A1: relative to abiraterone
T1 sequence (P05093 with tags, fused parts or gaps limits assumed): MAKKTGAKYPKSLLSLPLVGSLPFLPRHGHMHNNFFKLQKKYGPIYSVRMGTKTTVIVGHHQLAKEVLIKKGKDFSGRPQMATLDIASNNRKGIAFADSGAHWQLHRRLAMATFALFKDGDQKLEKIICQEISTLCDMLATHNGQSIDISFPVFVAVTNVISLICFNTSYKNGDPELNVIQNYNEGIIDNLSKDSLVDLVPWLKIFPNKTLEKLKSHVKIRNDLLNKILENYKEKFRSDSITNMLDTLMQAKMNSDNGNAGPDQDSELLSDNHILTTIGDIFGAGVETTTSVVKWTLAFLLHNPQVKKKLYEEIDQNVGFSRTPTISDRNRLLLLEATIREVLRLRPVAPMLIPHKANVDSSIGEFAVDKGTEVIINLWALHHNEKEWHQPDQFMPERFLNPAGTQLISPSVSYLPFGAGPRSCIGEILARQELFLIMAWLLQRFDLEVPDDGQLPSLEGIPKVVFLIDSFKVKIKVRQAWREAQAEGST

CYP21A2 [2] = molecular target: T2, CYP21A2 (Homo sapiens, UniProt P08686); test: Inhibition of CYP21A2-mediated progesterone 21-hydroxylation; assay type: biochemical
T2 sequence (P08686 with tags, fused parts or gaps): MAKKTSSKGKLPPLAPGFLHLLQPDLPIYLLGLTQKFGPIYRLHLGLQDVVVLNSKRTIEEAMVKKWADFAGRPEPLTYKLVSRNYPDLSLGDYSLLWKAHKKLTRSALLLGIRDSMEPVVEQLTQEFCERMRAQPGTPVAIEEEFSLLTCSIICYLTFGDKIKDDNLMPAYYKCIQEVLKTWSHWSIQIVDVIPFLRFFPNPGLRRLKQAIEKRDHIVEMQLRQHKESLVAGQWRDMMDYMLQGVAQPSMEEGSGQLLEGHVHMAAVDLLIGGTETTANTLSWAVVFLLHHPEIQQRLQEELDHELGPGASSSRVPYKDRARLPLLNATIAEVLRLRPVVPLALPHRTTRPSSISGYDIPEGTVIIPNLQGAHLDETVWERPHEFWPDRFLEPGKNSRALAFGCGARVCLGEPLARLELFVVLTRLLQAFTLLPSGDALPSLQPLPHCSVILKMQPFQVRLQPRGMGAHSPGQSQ

CYP21A2 [3] = test: as above; assay type: biochemical, human
CYP17A1 [4] = molecular target: T1, CYP17A1; details: reported; cited from earlier work

SMILES: C[C@]12CC[C@H]3[C@@H](C[C@@H]4O[C@@]45C[C@@H](O)CC[C@]35C)[C@@H]1CC=C2c1cccnc1 [6b, 5α,6α-Epoxy-17-(3-pyridyl)androst-16-en-3β-ol]
IC50 (CYP17A1 [1]): 7.83 ± 0.92 nM
IC50 (CYP21A2 [2]): 42.1 ± 8.5 nM

SMILES: C[C@]12CC[C@H](O)C[C@@H]1C(=NO)C[C@@H]1[C@@H]2CC[C@]2(C)C(c3cccnc3)=CC[C@@H]12 [13b, 3β-Hydroxy-17-(3-pyridyl)-5α-androst-16-en-6-one oxime]
IC50 (CYP17A1 [1]): 16.5 ± 2.5 nM
increase in IC50 for CYP17A1 (CYP17A1 [1]): ca. 3 fold
IC50 (CYP21A2 [2]): 1390 ± 120 nM
increase in IC50 for CYP21A2 (CYP21A2 [2]; relative to abiraterone): 43 fold

SMILES: C[C@]12CCC(=O)C=C1CC[C@@H]1[C@@H]2CC[C@]2(C)C(c3cccnc3)=CC[C@@H]12 [compound 4, 17-(3-Pyridyl)androsta-4,16-dien-3-one]
decrease in the IC50 for CYP21A2 (CYP21A2 [2]; relative to abiraterone): 46 fold
selectivity for CYP21A2 over CYP17A1 (CYP21A2 [3]): 8.8 times
inhibition of CYP17A1 (CYP17A1 [4]): comparably to abiraterone itself

SMILES: C[C@]12CC[C@H](O)CC1=C(C#N)C[C@@H]1[C@@H]2CC[C@]2(C)C(c3cccnc3)=CC[C@@H]12 [compound 7, 3β-Hydroxy-17-(3-pyridyl)androsta-5,16-dien-6-carbonitrile]
increase in IC50 for CYP17A1 (CYP17A1 [1]): 3 fold

SMILES: C[C@]12CC[C@H](O)CC1=C(C(N)=O)C[C@@H]1[C@@H]2CC[C@]2(C)C(c3cccnc3)=CC[C@@H]12 [compound 8, 3β-Hydroxy-17-(3-pyridyl)androsta-5,16-dien-6-carboxamide]
increase in IC50 for CYP17A1 (CYP17A1 [1]): 4.6 fold
increase in IC50 for CYP21A2 (CYP21A2 [2]; relative to abiraterone): 20 fold

SMILES: C[C@]12CC[C@H](O)CC1=CC[C@@H]1[C@@H]2CC[C@]2(C)C(c3ccccc3)=CC[C@@H]12 [3b, 17-Phenylandrosta-5,16-dien-3β-ol]
increase in IC50 for CYP17A1 (CYP17A1 [1]): more than 4,000 fold
increase in IC50 for CYP21A2 (CYP21A2 [2]; relative to abiraterone): > 20 fold

selectivity for CYP17A1 inhibition over CYP21A2 inhibition (CYP17A1 [1]; progesterone hydroxylation reactions): ca. 16 fold
SMILES: C[C@]12CC[C@H](O)C[C@@H]1NC(=O)C[C@@H]1[C@@H]2CC[C@]2(C)C(c3cccnc3)=CC[C@@H]12 [14b, 6-Aza-7-oxo-17-(3-pyridyl)-B-homo-5α-androst-16-en-3β-ol]
